Laboratory results as given in patent publication US11510926B2, “Pharmaceutical salts/co-crystals of pentoxifylline, clonidine and linsidomine with caffeic, protocatechuic or alpha-lipoic acid an use thereof for treatment of pain” (priority 2018, dated 2022).

Assays:
[1] = tested on: CPIP rat model of CRPS; assay: Mechanical sensitivity (paw withdrawal threshold, von Frey) after topical application to the ipsilateral hind paw of CPIP rats; format: in vivo; conditions: for maximum change in PWTs after topical application: dose response comparison, Lin-CafA has half of the linsidomine content
Source text: Topical drugs were formulated into ointment-type preparation using a composite, water-soluble polyethylene glycol base system consisting of 40% carbowax (PEG 3350) and 60% PEG 400 (both from Sigma Aldrich). The required amounts of the active ingredients were first weighted out and then added to the already molten base and mixed well. The vehicle treatment consisted of the same water-miscible base ointment without the addition of the active drugs. The Chronic Post-ischemic Pain (CPIP) rat model of CRPS was prepared by inducing prolonged hind paw ischemia and subsequent reperfusion, as previously described by Coderre et. al., Pain, 112(1):94-105, 2004. In short, male Long Evans rats (300-400 g; Charles River, QC, Canada) were anesthetized over a 3-hour period with a bolus (55 mg/kg, intraperitoneally [i.p.]) followed by chronic i.p. infusion (0.15 mL/hour) of sodium pentobarbital (Ceva Sante Animale, Libourne, France) for 2 hours. Following induction of anesthesia, a Nitrile 70 Durometer O-ring (O-rings West, Seattle, Wash.) with an internal diameter of 5.5-mm was slipped around the rat's left hind limb proximal to the ankle joint to effect a complete blockade of arterial blood flow ([…] al., Mol Pain, 4:49, 2008). The ring was left in place for 3 hours, and the rats recovered from anesthesia 30 to 60 minutes following reperfusion. Mechanical Sensitivity Testing As a measure of mechanical sensitivity, paw withdrawal threshold (PWT), was tested on plantar surface of the ipsilateral hind paw of the CPIP rats. The rats were first habituated for 30 minutes in the testing chambers. Nylon monofilaments (von Frey hairs) with thickness designed to apply stimulus intensity ranging between 1 g and 15 g were applied to the plantar surface of the rats' hind-paw. The filaments were applied for 10 seconds or until flexion reflex occurred. PWTs were determined using Chaplan's up and down method after testing with the filaments in either ascending (after negative response) or descending (after positive response) order to find the correct response pattern which was later matched with its corresponding 50% threshold of paw withdrawal (Chaplan et al., J Neurosci Methods, 53:55-63, 1994). Time course measurements of PWTs after vehicle and drug administration were subjected to a repeated measure analysis of variance (ANOVA). Pairwise comparison was performed between PWTs obtained from drug and vehicle treatment groups measured at matching post-treatment times using Tukey's HSD test. Cumulative anti-allodynic effect measured over 180-minute time course experiments was assessed by calculating the area under the curve (AUC) of PWT elevations plotted post-topical application. Comparisons of different drug doses versus vehicle were performed using repeated measure ANOVA followed by Tukey's HSD test. Dose response curves for comparison of anti-allodynic potency were plotted on a semi-log scale with the amount of drug used per application on the X-axis and the AUC of the 180-minute PWT measured or change in PWT obtained post-drug application on the Y-axis. The linear regression of the dose-response curves was then calculated, and their difference analysed using a 1-way ANOVA. The synthesized salts/co-crystals of […], clonidine and […] were formulated into a polyethylene based topical ointment and their analgesic efficacy and potency tested and compared to their parent drugs on the CPIP rat model of CRPS.

[2] = tested on: CPIP rat model of CRPS; assay: Systemic absorption control: topical application to the uninjured contralateral paw, PWT of the injured CRPS paw; format: in vivo; conditions: concentration previously shown to relieve allodynia; PWT of injured paw at 30, 60, 120 and 180 minutes
Experimental: Mechanical Sensitivity Testing As a measure of mechanical sensitivity, paw withdrawal threshold (PWT), was tested on plantar surface of the ipsilateral hind paw of the CPIP rats. The rats were first habituated for 30 minutes in the testing chambers. Nylon monofilaments (von Frey hairs) with thickness designed to apply stimulus intensity ranging between 1 g and 15 g were applied to the plantar surface of the rats' hind-paw. The filaments were applied for 10 seconds or until flexion reflex occurred. PWTs were determined using Chaplan's up and down method after testing with the filaments in either ascending (after negative response) or descending (after positive response) order to find the correct response pattern which was later matched with its corresponding 50% threshold of paw withdrawal (Chaplan et al., J Neurosci Methods, 53:55-63, 1994).
To assess for any contribution systemic absorption might have to the anti-allodynic effects seen with the novel salts and co-crystals, we performed a control experiment using contralateral topical administration of the compounds. A topical preparation of the salts and co-crystals at a concentration proven to produce anti-allodynia, was applied to the uninjured contralateral paw of the CRPS rats and the effect this had on the PWT of the injured CRPS paw was measured at 30, 60, 120 and 180 minutes post topical application. The PWT obtained at 30, 60, 120 and 180 minutes post topical application were then compared with the values obtained after direct topical application on the injured CPRS paw.

O=C(O)/C=C/c1ccc(O)c(O)c1 [CafA, caffeic acid, reference compound]
anti-allodynic effects of topical administration on its own ([1]; CafA alone, FIG. 9C): no anti-allodynic effects
anti-allodynic effect upon topical application ([1]; CafA alone, three concentrations corresponding to W/W levels in the Pntx-CafA co-crystal, n=10): no anti-allodynic effect

Clc1cccc(Cl)c1NC1=NCCN1.O=C(O)CCCCC1CCSS1 [Clon-ALA, clonidine α-lipoate]
rise in PWTs compared to vehicle ([1]; 0.025% w/w, 30 minutes post-application): significant rise in PWTs
duration of elevated PWTs ([1]; 0.05% w/w, compared to 0.025% (30 minutes)): stay significantly higher for twice as long
increase in potency ([1]; Clon-ALA compared to Clon-HCl): ~2 ×
leftward shift of x-intercept of the dose response curve ([1]; Clon-ALA compared to Clon-HCl, p=0.04): 0.265 log units
relief of mechanical hypersensitivity ([1]; topical Clon-ALA, different doses, n=7): dose-dependently, relieves mechanical hypersensitivity
anti-allodynic effects when applied to the contralateral (uninjured) paw [2]: no anti-allodynic effects

Nc1c[n+](N2CCOCC2)no1.O=C([O-])/C=C/c1ccc(O)c(O)c1 [Lin-CafA, linsidomine caffeate]
elevation of PWTs compared to vehicle ([1]; 1.6% w/w, 30, 60 and 120 minutes post-application): significantly elevates PWTs to non-allodynic values
increase in potency ([1]; Lin-CafA compared to Lin-Cl): ~2.5 fold
leftward shift of x-intercept of the dose response curve ([1]; Lin-CafA compared to Lin-Cl, p=0.0026): 0.3966 log units
efficacy and potency compared with linsidomine chloride ([1]; comparison of dose response curves): greater efficacy and potency
maximum change in PWTs after topical application [1]: 9.6±1.15
anti-allodynic effect compared to vehicle ([1]; topical W/W 1.6% and 0.8%, for as long as 120 minutes post-application, n=9): significant anti-allodynic effect
anti-allodynic effects when applied to the contralateral (uninjured) paw [2]: no anti-allodynic effects

O=C(O)c1ccc(O)c(O)c1 [PCA, protocatechuic acid, reference compound]
anti-allodynic effect compared to vehicle ([1]; PCA alone, topical, at the w/w doses contained in the Pntx-PCA co-crystal): does not produce significant anti-allodynic effects

CC(=O)CCCCn1c(=O)c2c(ncn2C)n(C)c1=O.O=C(O)C=Cc1ccc(O)c(O)c1 [Pntx-CafA, pentoxifylline caffeate]
anti-allodynic potency in linear segment of dose-response curve ([1]; Pntx-CafA 2% W/W and 1% W/W compared to Pntx alone): more potent anti-allodynic effect
elevation of PWTs compared to vehicle ([1]; topical 2% W/W, 60, 120 and 180 minutes post application, n=10): significant and sustained elevation of PWTs
anti-allodynic effect at higher dose ([1]; topical 4% W/W compared to 2% W/W): did not improve

[NH-]c1c[n+](N2CCOCC2)no1 [linsidomine chloride, reference compound]
maximum change in PWTs after topical application [1]: 6.23±0.99

pentoxifylline protocatechuate [Pntx-PCA]
cumulative 3-hour anti-allodynic effect ([1]; 2.5% W/W Pntx-PCA (1.5% Pntx and 1% PCA) compared to 3.5% Pntx and 2% PCA W/W): significantly exceeds the effect achieved by double the amount of its constituent drugs
increase in potency ([1]; Pntx-PCA compared to Pntx, from shift of log-dose response curve): ~4 fold
leftward shift of the log-dose response curve ([1]; Pntx-PCA compared to Pntx, p=0.0113): 0.59 log units
anti-allodynic effect (PWT) compared to ointment base alone ([1]; topical 5 and 10% W/W, ipsilateral hind paw, 30 to 60 minutes post-application, n=8): significant anti-allodynic effects
anti-allodynic effects when applied to the contralateral (uninjured) paw [2]: no anti-allodynic effects

pentoxifylline-gallic acid [Pntx-GallA]
anti-allodynic effects of topical formulations ([1]; Pntx-GallA, CRPS rats, overall): modest anti-allodynic effects
difference in change in PWT versus respective doses of Pntx ([1]; different doses, 3 hours of testing following topical application): no significant measurable difference
improvement in PWT compared to vehicle ([1]; observed at the only dose of 4% W/W, p<0.05): significant improvement in PWT
